Common to all, as to assay type: physicochemical
A short description of data set [1]: Pour point (IS: 1448: P-10). As to the method: (§1) The synthesized products have the following characteristics: • a. The prepared esters have viscosity grade of 31.0 to 47.0 cSt at 40° C. as per P-25 matching the specification and a high viscosity index of 161-171 as per P-56. • b. […] The biodegradability of the synthesized ester is above 95% as per the standard ASTM D: 5864 test method for biodegradability. • e. The products are non toxic to the sewage bacteria. • f. The conventional additives which are suitable for mineral oils are also giving positive response with this ester. • g. The products have good anti wear properties with wear scar diameter of 0.350 mm at 40 kgf load as per ASTM D: 4172B. • h. The products have excellent load bearing capacity. • i. The products have good lubricity. • j. The products have good oxidative stability. • k. The products have no evaporation loss. • l. The products have good adherence to metal characteristics. • m. The products have good corrosion inhibiting characteristics. • n. […] Synthetic biodegradable polyol complex ester lubricating oils have excellent biodegradability, a high viscosity index and a low pour point, a high flash point, very good lubricity, good oxidative stability and property of preventing corrosion and suitable for use with sealing materials. • p.

Data set [2] in a line: Kinematic viscosity (IS: 1448: P-25). Particulars: for viscosity at 100° C. / viscosity at 0° C.: in cSt.
Data set [3] can be described thus: Viscosity index (P-56). As to the method:
(§2) In an embodiment of the present invention the polyol complex ester base oils may be selected from the viscosity range of 34.26 to 43.54 cSt at 40° C. as per IS: 1448: P-25 matching the specification and a high viscosity index of 161-171 as per P-56.
as §1

A short description of data set [4]: Kinematic viscosity (IS: 1448: P-25). The note with it: for viscosity at 40° C.: in cSt; for KV in cst at 40° C.: P-25. As for the experimental part:
as §2, §1

Data set [5] can be described thus: Adherence to metal (drop diameter change, contact angle). The note with it: polished mild steel substrates.
Data set [6] in a line: Acidity (P-2).
Data set [7] in a line: Density (ASTM D: 4052).
Data set [8] in a line: Evaporation loss (P-136).

Where two headings read alike, the source gives them in different places.

As to `CCCCC(CC)COC(=O)CCCCCCCCC(=O)OCC(CC)(COC(=O)CCCCCCCCC(=O)OCC(CC)CCCC)COC(=O)CCCCCCCCC(=O)OCC(CC)CCCC` (centres unmarked) [THSEH, 1,1,1-trishydroxymethyl propane trisebacic 2 ethyl 1 hexanoate], the pour point in data set [1] was above −24 °C. In data set [2], the “viscosity at 100° C.” value is 16.87. The same compound returned a viscosity index in data set [3] of 196. In addition, in data set [4], the “viscosity at 40° C.” value is reported as 111.

In turn, `CCCCC(CC)COC(=O)CCCCCCCCC(=O)OCC(C)(C)COC(=O)CCCCCCCCC(=O)OCC(CC)CCCC` (centres unmarked) [DMSEH, 2,2-dimethyl 1,3-propane disebacid 2 ethyl 1 hexanoate] came in with a pour point in data set [1] above −24 °C. Besides, the “viscosity at 100° C.” value in data set [2] is recorded as 14.8. The compound also gave a viscosity index in data set [3] of 172. Besides, the “viscosity at 40° C.” value in data set [4] is listed as 90.33.

`CCCCC(CC)COC(=O)CCCCC(=O)OCC(CC)(CC)COC(=O)CCCCC(=O)OCC(CC)CCCC` (centres unmarked) [DEADEH, 2,2-diethyl 1,3-propane di adipic 2 ethyl 1 hexanoate] registered a pour point in data set [1] above −24 °C. Further, the “viscosity at 100° C.” value in data set [2] is listed as 12.83. Besides, the viscosity index in data set [3] is listed as 138. Moreover, the “viscosity at 40° C.” value in data set [4] stood at 91.3.

Compound `CCCCC(CC)COC(=O)CCCCCCCC(=O)OCC(C)(C)COC(=O)CCCCCCCC(=O)OCC(CC)CCCC` (centres unmarked) [DMAZEH, 2,2-dimethyl 1,3-propane diazelaic 2 ethyl 1 hexanoate] gave a pour point in data set [1] above −27 °C. Also, in data set [2], the “viscosity at 100° C.” value was 5.60. This compound also yielded a viscosity index in data set [3] of 169. In addition, the “viscosity at 40° C.” value in data set [4] is on record as 25.44.

`CCCCC(CC)COC(=O)CCCCC(=O)OCC(CC)(COC(=O)CCCCC(=O)OCC(CC)CCCC)COC(=O)CCCCC(=O)OCC(CC)CCCC` (centres unmarked) [THADEH, 1,1,1-trishydroxymethyl propane triadipic 2 ethyl 1 hexanoate] gave a pour point in data set [1] above −15 °C. For the same compound, the “viscosity at 100° C.” value in data set [2] is 10.17. Further, the viscosity index in data set [3] came out at 196. The “viscosity at 40° C.” value in data set [4] worked out at 26.51.

Take `CCCCC(CC)COC(=O)CCCCCCCC(=O)OCC(CC)(CC)COC(=O)CCCCCCCC(=O)OCC(CC)CCCC` (centres unmarked) [DEAZEH, 2,2-diethyl 1,3-propane diazelaic 2 ethyl 1 hexanoate]: the “Adherence to metal, change in diameter of the drop, percent” value in data set [5] is given as 13%. This compound showed a pour point in data set [1] above −39 °C. Further, the “pour point” value in data set [1] (P-10) was below −39 °C. Also, in data set [2], the “KV in cst at 0° C.” value is 408.23 cst, the “viscosity at 0° C.” value came to 408.23 and the “KV in cst at −35° C.” value is listed as above 5000 cst. In data set [3], the viscosity index was determined as 171. Besides, the “viscosity index” value in data set [3] (P-56) worked out at 171. Further, in data set [4], the “KV in cst at 40° C.” value came out at 47.00 cst and the “viscosity at 40° C.” value worked out at 47.0. Also, in data set [6], the “Acidity, Inorganic” value is reported as “Nil” and the “Acidity, Organic” value was 0.0635 mg KoH/gm of oil. For the same compound, the “Density, d4^20” value in data set [7] is 0.9627 gm/ml. For the same compound, the “Evaporation loss, % by mass” value in data set [8] was 0.42 % by mass.

Regarding `CCCCC(CC)COC(=O)CCCCC(=O)OCC(C)(C)COC(=O)CCCCC(=O)OCC(CC)CCCC` (centres unmarked) [DMADEH, 2,2-dimethyl 1,3-propane di adipic 2 ethyl 1 hexanoate], the “Adherence to metal, change in diameter of the drop, percent” value in data set [5] is 12%. In data set [1], this compound came in with a pour point above −39 °C. Also, the “pour point” value in data set [1] (P-10) was below −39 °C. In data set [2], the “KV in cst at 0° C.” value was determined as 323.98 cst, the “viscosity at 0° C.” value is given as 323.98 and the “KV in cst at −35° C.” value is reported as above 4000 cst. This compound also registered a viscosity index in data set [3] of 161. Further, in data set [3] (P-56), the “viscosity index” value is listed as 161. In addition, in data set [4], the “KV in cst at 40° C.” value came out at 31.00 cst and the “viscosity at 40° C.” value is 31.00. For the same compound, in data set [6], the “Acidity, Inorganic” value is listed as “Nil” and the “Acidity, Organic” value is on record as 0.0817 mg KoH/gm of oil. Besides, in data set [7], the “Density, d4^20” value amounted to 0.9915 gm/ml. Besides, the “Evaporation loss, % by mass” value in data set [8] was found to be 0.48 % by mass.

In data set [1], `CCCCC(CC)COC(=O)CCCCCCCCC(=O)OCC(CC)(CC)COC(=O)CCCCCCCCC(=O)OCC(CC)CCCC` (centres unmarked) [DESEH, 2,2-diethyl 1,3-propane disebacic 2 ethyl 1 hexanoate] displayed a pour point above −39 °C. In addition, the “viscosity at 100° C.” value in data set [2] is listed as 7.24. In data set [3], this compound had a viscosity index of 165. The “viscosity at 40° C.” value in data set [4] was determined as 36.8.

`CCCCC(CC)COC(=O)CCCCCCCC(=O)OCC(CC)(COC(=O)CCCCCCCC(=O)OCC(CC)CCCC)COC(=O)CCCCCCCC(=O)OCC(CC)CCCC` (centres unmarked) [THAZEH, 1,1,1-trishydroxymethyl propane triazilaic 2 ethyl 1 hexanoate] gave a pour point in data set [1] above −27 °C. The “viscosity at 100° C.” value in data set [2] came to 8.53. Also, the viscosity index in data set [3] is 165. Besides, the “viscosity at 40° C.” value in data set [4] amounted to 46.07.
